Data set [1] relates to fourth instar larvae of Colorado potato beetle. The note with it: Antonious et al. 2005; cited from earlier work.
In data set [2] the test system is Bemisia tabaci whiteflies. As to conditions: cited from earlier work; for repellent to Bemisia tabaci whiteflies: purified compounds, Bleeker et al., Phytochemistry 2011; for attractiveness of cultivated tomato to B. tabaci after addition of the compound: compared with neighbouring siblings, Bleeker et al. 2011.
For data set [3] the following is noted: isolated compound; previously observed by Bleeker et al. 2011; cited from earlier work.
In a further data set the test system is B. tabaci (biotype Q). The experiment in a line: Clip cage bioassay B. tabaci (whitefly). It counts as in vivo, Bemisia tabaci. The note with it: clip cages, 20 adults, after 5 days; compared with S. lycopersicum C32. As to the method: An interspecies cross between S. lycopersicum and S. habrochaites was performed and F2 lines were transferred to the greenhouse at the University of Amsterdam. The F2 plants were tested for their production of 7-epizingiberene. Cuttings were made of 7-epizingiberene producing F2 lines, S. lycopersicum C32 (moneymaker) and of S. habrochaites (PI127826). Both a parental line of the initial cross.
Two cuttings of genotypes PI127826 and C32 and the respective F2s received 4 clip cages, each of which contained 20 adult B. tabaci (biotype Q) initially collected in Almeria (Spain) and reared continuously on cucumber under laboratory conditions (see Bleeker et al., 2009—Plant Physiol.). After 5 days, the total number and percentage of dead flies and total nr of eggs (combined abaxial and adaxial side of leaves) was determined.

The subject of a further data set is Tuta absoluta. The data set can be described thus: No-choice oviposition assay Tuta absoluta. The format is in vivo. The note with it: F2 plants, FIGS. 10A and 10B. As to the method: Tuta absoluta (order: Lepidoptera) were reared on tomato (S. lycopersicum). A no-choice assay was performed for 7 days. 5 adults were allowed to oviposit their eggs on S. lycopersicum (C32) plants and on F2 plants arisen from an interspecies cross between S. lycopersicum (C32) and S. habrochaites (PI127826). After 7 days, Tuta abosoluta oviposition (number of eggs deposited) was determined on the abaxial and adaxial side of six leaves per plant genotype. F2 plants were characterized for 7-epizingiberene content after the assay and Tuta abosoluta oviposition (number of eggs deposited) was correlated to the content of 7-epizingiberene.

The subject of data set [4] is adult whiteflies B. tabaci. As to conditions: Antonious et al. 2005; cited from earlier work.
Data set [5] is described as follows: Enzyme activity assay with zFPP, products by enantioselective GC-MS. It counts as biochemical. As to conditions: heterologously expressed in E. coli; SPME, chiral column. The protocol: The full length gene (comprising SEQ ID NO:4 5′ of SEQ ID NO:2 (SEQ ID NO:4-SEQ ID NO:2)) was cloned into the pGEX-KG expression vector (Guan and Dixon 1991). Constructs were transformed to C41 (DE3) E. coli cells (Dumon-Seignovert et al., 2004). As a control, empty pGEX-KG vector was transformed. A culture was grown to an OD600 of 0.5-0.6 at 37° C. and placed at 4° C. for 30 min. Protein expression was induced with 1 mM isopropyl β-D-1-thiogalactopyranoside (IPTG). After 16 hours incubation at 16° C., cells were harvested by centrifugation. The supernatant was removed and the pellet was resuspended in assay buffer (25 mM HEPES, pH 7.2, 10 mM MgCl2, 10% (v/v) glycerol) with added lysozyme (1 mg mL^−1) and proteinase inhibitors and incubated on ice for 30 minutes and subsequently sonicated. The lysate was centrifuged and the supernatant was stored at −80° C. Activity assays were performed in 500 μL 50 mM HEPES, pH7.2, 100 mM KCl, 7.5 mM MgCl2, 20 μM MgCl2, 5% (v/v) glycerol, 5 mM DTT with 50 μL protein and 2 mM cis-FPP(2Z-6Z-farnesyl diphosphate) as substrate. Enzyme products were analyzed by GC-MS with Solid Phase Micro Extraction fiber (SPME). Terpene products were identified using standards and comparing ion spectra, retention time and Kovats Index (see FIGS. 1 and 2). […]

Data set [6] can be described thus: Enzyme activity assay with E-E-FPP, products by enantioselective GC-MS. It counts as biochemical. As to conditions: heterologously expressed; SPME, chiral column. The protocol: Activity assays were performed in 20 mL glass vials in a total volume of 500 μL 50 mM HEPES, pH7.2, 100 mM KCl, 7.5 mM MgCl2, 20 μM MgCl2, 5% (v/v) glycerol, 5 mM DTT with 50 μL protein and either 2 mM cis-FPP (2Z-6Z-farnesyl diphosphate), trans-FPP (E-E-farnesyl diphosphate), GPP (geranyl diphosphate), NDP (neryl diphosphate), or GGPP (geranylgeranyl diphosphate) as a substrate (Echelon Biosciences Incorporated, Salt Lake City, USA). Vials were closed with a teflon lined crimp cap immediately and incubated under moderate shaking for 1 hour at 30° C.
Enzyme products were sampled with a Solid Phase Micro Extraction fiber (SPME) for 10 minutes after the vial had been agitated and heated to 50° C. The fiber was desorbed for 1 minute in an Optic injector port (ATAS GL Int. Zoeterwoude, NL) which was kept at 220° C. For liquid injection 1-3 μL of sample in hexane was injected.
In order to separate alpha-zingiberene from 7-epizingiberene the Astec CHIRALDEX™ B-DM column (30m×0.25 mm×0.12 μm film thickness; Supelco) was selected. The column was placed in an 6890 N gas chromatograph (Agilent, Amstelveen, NI). […] Helium was used as a carrier gas. Mass spectra were generated with the ion source set to −70V at 200° C. and collected with a Time-of-Flight MS (Leco, Pegasus III, St. Joseph, Mich., USA) at 1850 V, with an acquisition rate of 20 scans per second.

Consider `CCCCCCCCCC(C)=O` [2-undecanone], for which the “toxic effect against fourth instar larvae of Colorado potato beetle” value in data set [1] was “toxic effect”. In the case of `CC(C)=CCC[C@H](C)[C@@H]1C=CC(C)=CC1` [alpha-zingiberene], the “repellent to Bemisia tabaci whiteflies” value in data set [2] is “do not”. On to `CC(C)=CCC[C@H](C)c1ccc(C)cc1` [S-curcumene], for which, in data set [2], the “repellent to Bemisia tabaci whiteflies” value was “do not”. For the molecule `CC(C)=CCC[C@@H](C)[C@@H]1C=CC(C)=CC1` [7-epizingiberene], the “stability when exposed to air” value in data set [3] is on record as “spontaneously convert to R-curcumene”. The “resistance to whiteflies (adult mortality and oviposition)” value in the data set on B. tabaci (biotype Q) is reported as “enhances resistance to whiteflies”. In data set [2], the “attractiveness of cultivated tomato to B. tabaci after addition of the compound” value was “less attractive” and the “repellent to Bemisia tabaci whiteflies” value is reported as “act as repellent”. Also, the “correlation of oviposition with 7-epizingiberene content” value in the data set with Tuta absoluta is given as “negatively correlated”.

Take `CC(C)=CCC[C@@H](C)c1ccc(C)cc1` [R-curcumene]: in data set [2], the “attractiveness of cultivated tomato to B. tabaci after addition of the compound” value is recorded as “less attractive” and the “repellent to Bemisia tabaci whiteflies” value was “act as repellent”. For `CCCCCCCCCCCC(C)=O` [2-tridecanone], in data set [4], the “toxic effect against adult whiteflies B. tabaci” value is on record as “toxic effect”.

B1: ShZIS: 7-epizingiberene synthase protein from Solanum habrochaites, SEQ ID NO:1 (protein)
chain: CSHSTPSSMNGFEDARDRIRESFGKVELSPSSYDTAWVAMVPSKHSLNEPCFPQCLDWIIENQREDGSWGLNPSHPLLLKDSLSSTLACLLALTKWRVGDEQIKRGLGFIETQSWAIDNKDQISPLGFEIIFPSMIKSAEKLNLNLAINKRDSTIKRALQNEFTRNIEYMSEGFGELCDWKEIIKLHQRQNGSLFDSPATTAAALIYHQHDKKCYEYLNSILQQHKNWVPTMYPTKIHSLLCLVDTLQNLGVHRHFKSEIKKALDEIYRLWQQKNEEIFSNVTHCAMAFRLLRISYYDVSSDELAEFVDEEHFFATSGKYTSHVEILELHKASQLAIDHEKDDILDKINNWTRTFMEQKLLNNGFIDRMSKKEVELALRNFYIISDLAENRRYIKSYEENNFKILKAAYRSPNINNKDLFIFSIRDFELCQAQHQEELQQLKRWFEDCRLDQLGLSEQFISASYLCAIPIVPGPELSDARLVYAKYVMLLTIVDDHFESFASTDECLNIIELVERWDDYASVGYKSERVKVLFSMFYKSIEEIATIAEIKQGRSVKNHLINLWLKVMKLMLMERVEWCSGKTIPRIEEYLYVSSITFGSRLIPLTTQYFIGIKISKDLLESDEIYGLCNFTGIVLRLLNDLQDSKREQKEGSINLVTLLMKSISEEEAIMKMKEILEMKRRELFKMVLVQKKGSQLPQLCKEIFWRTCKWAHFTYSQTDRYRFPEEMENHIDEVFYKPLNH
modifications: Solanum habrochaites
Turning to B1, the “product formed from Z-Z-FPP” value in data set [5] was “made 7-epizingiberene”.

B2: ObZIS: sweet lemon basil zingiberene synthase (Iijima et al., 2004), alpha-zingiberene synthase (protein, UniProt Q5SBP4 1-541, looked up)
Alpha-zingiberene synthase: MESRRSANYQASIWDDNFIQSLASPYAGEKYAEKAEKLKTEVKTMIDQTRDELKQLELIDNLQRLGICHHFQDLTKKILQKIYGEERNGDHQHYKEKGLHFTALRFRILRQDGYHVPQDVFSSFMNKAGDFEESLSKDTKGLVSLYEASYLSMEGETILDMAKDFSSHHLHKMVEDATDKRVANQIIHSLEMPLHRRVQKLEAIWFIQFYECGSDANPTLVELAKLDFNMVQATYQEELKRLSRWYEETGLQEKLSFARHRLAEAFLWSMGIIPEGHFGYGRMHLMKIGAYITLLDDIYDVYGTLEELQVLTEIIERWDINLLDQLPEYMQIFFLYMFNSTNELAYEILRDQGINVISNLKGLWVELSQCYFKEATWFHNGYTPTTEEYLNVACISASGPVILFSGYFTTTNPINKHELQSLERHAHSLSMILRLADDLGTSSDEMKRGDVPKAIQCFMNDTGCCEEEARQHVKRLIDAEWKKMNKDILMEKPFKNFCPTAMNLGRISMSFYEHGDGYGGPHSDTKKKMVSLFVQPMNITI
With B2, the “product formed from E-E-FPP” value in data set [6] was “made alpha-zingiberene”.

(Values after patent US9834784B2, “Pest resistant plants” (Keygene N.V., priority 2011, dated 2017).)
